These results are taken from ChEMBL document CHEMBL4196079, “Molecular interaction of novel benzothiazolyl triazolium analogues with calf thymus DNA and HSA-their biological investigation as potent antimicrobial agents” (Eur J Med Chem, 2018).

Broadly, the MIC is the lowest concentration found to suppress growth. Usually IC50 stands for the midpoint of a concentration-inhibition curve.

The subject of one data set is Cyberlindnera jadinii. The data set is described as follows: Antifungal activity against Candida utilis after 24 hrs by NCCLS micro broth dilution method. In kind it is functional. To be noted: Williopsis jadinii.
The subject of data set [1] is Saccharomyces cerevisiae. The data set is described as follows: Antifungal activity against Saccharomyces cerevisiae after 24 hrs by NCCLS micro broth dilution method. In kind it is functional.
The target in data set [2] is T1, Albumin (Homo sapiens, UniProt P02768). The data set is described as follows: Binding affinity to HSA assessed as biomolecular quenching rate constant at pH 7.3 at 286 K by fluorescence assay. The note with it: isolated protein. It counts as ADME.
The test system of data set [3] is Staphylococcus aureus. The data set is described as follows: Antibacterial activity against Staphylococcus aureus ATCC 25923 after 24 hrs by NCCLS micro broth dilution method. The note with it: ATCC 25923, 24 h. In kind it is functional. For orientation: Broth dilution looks for growth in wells or tubes with falling amounts of substance.
Data set [4] has as its target T1, Albumin. The data set is described as follows: Binding affinity to HSA assessed as Stern-Volmer quenching constant at pH 7.3 at 310 K by fluorescence assay. In kind it is ADME. To be noted: isolated protein.
For data set [5], the target named is T1, Albumin. The data set is described as follows: Binding affinity to HSA assessed as change in entropy at 286 K by Van't hoff plot analysis. In kind it is ADME. The note with it: isolated protein.
The subject of a further data set is Candida albicans. The data set is described as follows: Antifungal activity against Candida albicans ATCC 76615 after 24 hrs by NCCLS micro broth dilution method. The note with it: ATCC 76615, 24 h. In kind it is functional.
Another data set deals with Pseudomonas aeruginosa. The data set is described as follows: Antibacterial activity against Pseudomonas aeruginosa ATCC 27853 after 24 hrs by NCCLS micro broth dilution method. It counts as functional. To be noted: ATCC 27853, 24 h.
Data set [6] deals with T1, Albumin. The data set is described as follows: Binding affinity to HSA assessed as biomolecular quenching rate constant at pH 7.3 at 310 K by fluorescence assay. To be noted: isolated protein. It counts as ADME.
The next data set has as its system Bacillus. The data set is described as follows: Antibacterial activity against Bacillus proteus ATCC 13315 after 24 hrs by NCCLS micro broth dilution method. In kind it is functional. To be noted: ATCC 13315, 24 h.
The next data set has as its system Salmonella typhi. The data set is described as follows: Antibacterial activity against Salmonella typhi after 24 hrs by NCCLS micro broth dilution method. It counts as functional, Salmonella enterica subsp. enterica serovar Typhi. To be noted: Salmonella enterica.
Data set [7] has as its target T1, Albumin. The data set is described as follows: Binding affinity to HSA assessed as change in free energy at 310 K by Van't hoff plot analysis. It counts as ADME. To be noted: isolated protein.
The test system of data set [8] is Escherichia coli. The data set is described as follows: Antibacterial activity against Escherichia coli JM109 after 24 hrs by NCCLS micro broth dilution method. It counts as functional. The note with it: JM109, 24 h.
A further data set relates to Calf thymus DNA. The data set is described as follows: Inhibition of neutral red binding to calf thymus DNA by UV-Visible absorption spectroscopy. It counts as nucleic-acid assay. The note with it: Bos taurus.
For data set [9], the target named is T1, Albumin. The data set is described as follows: Binding affinity to HSA assessed as Stern-Volmer quenching constant at pH 7.3 at 286 K by fluorescence assay. It counts as ADME. To be noted: isolated protein.
The test system of the next data set is Bacillus subtilis. The data set is described as follows: Antibacterial activity against Bacillus subtilis ATCC 21216 after 24 hrs by NCCLS micro broth dilution method. It counts as functional. The note with it: ATCC 21216, 24 h.
Data set [10] concerns the target T1, Albumin. The data set is described as follows: Binding affinity to HSA assessed as change in enthalpy at 286 K by Van't hoff plot analysis. In kind it is ADME. The note with it: isolated protein.
Data set [11] addresses T1, Albumin. The data set is described as follows: Binding affinity to HSA assessed as biomolecular quenching rate constant at pH 7.3 at 303 K by fluorescence assay. In kind it is ADME. To be noted: isolated protein.
For data set [12], the target named is T1, Albumin. The data set is described as follows: Binding affinity to HSA assessed as Stern-Volmer quenching constant at pH 7.3 at 303 K by fluorescence assay. In kind it is ADME. The note with it: isolated protein.
Data set [13] deals with Staphylococcus aureus. The data set is described as follows: Antibacterial activity against methicillin-resistant Staphylococcus aureus N315 after 24 hrs by NCCLS micro broth dilution method. The note with it: N315, 24 h. It counts as functional.
Data set [14] deals with T1, Albumin. The data set is described as follows: Binding affinity to HSA assessed as change in free energy at 303 K by Van't hoff plot analysis. In kind it is ADME. The note with it: isolated protein.
The test system of another data set is Aspergillus flavus. The data set is described as follows: Antifungal activity against Aspergillus flavus after 24 hrs by NCCLS micro broth dilution method. It counts as functional.
The test system of the next data set is Pichia norvegensis. The data set is described as follows: Antifungal activity against Candida mycoderma after 24 hrs by NCCLS micro broth dilution method. It counts as functional.
For data set [15], the target named is T1, Albumin. The data set is described as follows: Binding affinity to HSA assessed as change in free energy at 286 K by Van't hoff plot analysis. It counts as ADME. The note with it: isolated protein.
The test system of another data set is Shigella dysenteriae. The data set is described as follows: Antibacterial activity against Shigella dysenteriae after 24 hrs by NCCLS micro broth dilution method. In kind it is functional.
The subject of data set [16] is Escherichia coli. The data set is described as follows: Antibacterial activity against Escherichia coli DH52 after 24 hrs by NCCLS micro broth dilution method. It counts as functional. To be noted: DH52, 24 h.
The next data set concerns Micrococcus luteus. The data set is described as follows: Antibacterial activity against Micrococcus luteus ATCC 4698 after 24 hrs by micro broth dilution method. The note with it: ATCC 4698, 24 h. It counts as functional.
For the next data set, the system named is MDA-MB-231. The data set is described as follows: Cytotoxicity against human MDA-MB-231 cells after 24 hrs by MTT assay. In kind it is cell-based. To be noted: MDA-MB-231, 24 h. Background: Tetrazolium dyes change colour on reduction, which living cells bring about.
For data set [17], the system named is Saccharomyces cerevisiae. The data set is described as follows: Potency index, ratio of fluconazole MIC to compound MIC for antifungal activity against Saccharomyces cerevisiae. In kind it is functional.

Values after ≈ are worked out from the molar mass of the structure shown.

T1 sequence (P02768 whole entry): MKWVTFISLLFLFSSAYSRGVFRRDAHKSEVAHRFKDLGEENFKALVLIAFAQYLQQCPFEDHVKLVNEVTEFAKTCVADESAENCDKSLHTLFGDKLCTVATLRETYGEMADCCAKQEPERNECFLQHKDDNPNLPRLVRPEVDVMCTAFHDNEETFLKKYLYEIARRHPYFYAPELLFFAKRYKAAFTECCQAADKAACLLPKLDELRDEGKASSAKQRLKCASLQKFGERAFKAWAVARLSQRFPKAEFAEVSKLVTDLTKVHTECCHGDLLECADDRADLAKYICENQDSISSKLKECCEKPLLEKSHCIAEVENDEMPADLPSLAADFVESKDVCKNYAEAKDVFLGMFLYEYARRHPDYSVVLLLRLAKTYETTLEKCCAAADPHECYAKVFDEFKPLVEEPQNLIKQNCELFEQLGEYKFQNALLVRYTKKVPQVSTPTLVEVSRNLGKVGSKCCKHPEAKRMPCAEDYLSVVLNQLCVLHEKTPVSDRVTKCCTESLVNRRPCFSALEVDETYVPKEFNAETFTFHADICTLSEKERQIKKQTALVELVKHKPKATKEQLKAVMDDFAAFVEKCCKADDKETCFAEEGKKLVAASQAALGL

In the case of `CCOc1ccc2c(c1)sc1nc(-c3ccccc3)c(COCc3cn(Cc4ccc(Cl)c(Cl)c4)nn3)n12`, the MIC amounted to 2 µg/mL (≈ 3.54 µM) with Cyberlindnera jadinii; 16 µg/mL (≈ 28.3 µM) with Saccharomyces cerevisiae [1]; 16 µg/mL (≈ 28.3 µM) in the data set on Staphylococcus aureus [3]; 8 µg/mL (≈ 14.2 µM) against Candida albicans; 4 µg/mL (≈ 7.09 µM) against Pseudomonas aeruginosa; 8 µg/mL (≈ 14.2 µM) against Bacillus. The MIC came to 8 µg/mL (≈ 14.2 µM) in the data set on Salmonella typhi; 1 µg/mL (≈ 1.77 µM) in the data set with Escherichia coli [8]; 4 µg/mL (≈ 7.09 µM) in the data set on Bacillus subtilis; 16 µg/mL (≈ 28.3 µM) in the data set on Staphylococcus aureus [13]; 64 µg/mL (≈ 113 µM) against Aspergillus flavus; 4 µg/mL (≈ 7.09 µM) against Pichia norvegensis. Moreover, the MIC was determined as 16 µg/mL (≈ 28.3 µM) in the data set with Shigella dysenteriae, 32 µg/mL (≈ 56.7 µM) with Escherichia coli [16] and 2 µg/mL (≈ 3.54 µM) with Micrococcus luteus. In addition, the Kq on Albumin [2] came out at 6.36 ×10¹² L/mol/s; at Albumin [6], 5.34 ×10¹² L/mol/s; at Albumin [11] it was 5.53 ×10¹² L/mol/s. In addition, the figures for the KSV at Albumin [4], at Albumin [9] and on Albumin [12] were 3.42 ×10⁴ L/mol, 4.04 ×10⁴ L/mol and 3.54 ×10⁴ L/mol, respectively. Further, the deltaS on Albumin [5] is recorded as 60.5 J/mol.K. In addition, the deltaG at Albumin [7] was -6.0194 kcal/mol; on Albumin [14] it was -5.9183 kcal/mol; on Albumin [15], -5.9113 kcal/mol. For the same compound, the inhibition entry in the data set with Calf thymus DNA is “Dose-dependent effect”. Besides, the deltaH at Albumin [10] is -1.54 kcal/mol.
Regarding `CCOc1ccc2c(c1)sc1nc(-c3ccccc3)c(COCc3cn(Cc4cccc(F)c4)nn3)n12`, the MIC with Cyberlindnera jadinii is 16 µg/mL (≈ 31.2 µM); in the data set on Saccharomyces cerevisiae [1], 32 µg/mL (≈ 62.3 µM); against Staphylococcus aureus [3], 128 µg/mL (≈ 249 µM); against Candida albicans it was 8 µg/mL (≈ 15.6 µM); against Pseudomonas aeruginosa, 64 µg/mL (≈ 125 µM); in the data set with Bacillus, 64 µg/mL (≈ 125 µM). Further, the MIC was found to be 32 µg/mL (≈ 62.3 µM) against Salmonella typhi; 128 µg/mL (≈ 249 µM) against Escherichia coli [8]; 128 µg/mL (≈ 249 µM) against Bacillus subtilis; 16 µg/mL (≈ 31.2 µM) in the data set with Staphylococcus aureus [13]; 64 µg/mL (≈ 125 µM) in the data set with Aspergillus flavus; 16 µg/mL (≈ 31.2 µM) with Pichia norvegensis. Besides, the MIC amounted to 128 µg/mL (≈ 249 µM) against Shigella dysenteriae, 16 µg/mL (≈ 31.2 µM) in the data set on Escherichia coli [16] and 128 µg/mL (≈ 249 µM) in the data set on Micrococcus luteus. Moreover, the IC50 in the data set with MDA-MB-231 was below 100 µg/mL.
For `CCCCCn1cc(COCc2c(-c3ccccc3)nc3sc4cc(OCC)ccc4n23)nn1`, the MIC with Cyberlindnera jadinii was found to be 1 µg/mL (≈ 2.1 µM); against Saccharomyces cerevisiae [1], 8 µg/mL (≈ 16.8 µM); in the data set on Staphylococcus aureus [3], 128 µg/mL (≈ 269 µM); in the data set with Candida albicans it was 8 µg/mL (≈ 16.8 µM); in the data set on Pseudomonas aeruginosa it was 128 µg/mL (≈ 269 µM); in the data set on Bacillus, 64 µg/mL (≈ 135 µM). For the same compound, the MIC with Salmonella typhi is 128 µg/mL (≈ 269 µM); in the data set on Escherichia coli [8], 128 µg/mL (≈ 269 µM); in the data set on Bacillus subtilis, 64 µg/mL (≈ 135 µM); with Staphylococcus aureus [13], 32 µg/mL (≈ 67.3 µM); in the data set on Aspergillus flavus, 32 µg/mL (≈ 67.3 µM); in the data set on Pichia norvegensis it was 4 µg/mL (≈ 8.41 µM). Moreover, the MIC with Shigella dysenteriae, against Escherichia coli [16] and in the data set on Micrococcus luteus was 128 µg/mL (≈ 269 µM) throughout. The Ratio in the data set with Saccharomyces cerevisiae [17] is 2.
